From US4550118A, “Heterocyclic compounds” (Ikeda Mohando Co., Ltd., priority 1982, dated 1985) come the findings set out here.

A value given as a limit tells only on which side of the number the result lay.

Data set [1] has as its system acid secretion in pylorus-ligated rats. The data set can be described thus: Anti-secretory effect (histamine-stimulated gastric acid secretion) in pylorus-ligated rat. The class given is in vivo, male wistar rats. Conditions: Rattus norvegicus, sc, 3 h; 2 mg/kg s.c., 30 min before histamine 3 mg/kg s.c.; n=5; * significant at 5%, ** at 1% vs control; read-out: inhibitory effect of acid secretion (%) at 2 mg/kg s.c. Here is the method:
(A) Anti-secretory Effect in Pylorus-ligated Rat
After 24 hr fasting, male wistar rats weighing about 160 g were anesthetized by intraperitoreal injection of urethans 1.2 g/kg. Then, after ligating the pylorus and the esophagus, the proventriculus was incised and a double polyethylene cannula was inserted. The gastric wall was washed out with 5 ml of physiological saline every 30 minutes and the amount of acid contained in the saline after washing was measured by titration. After measuring the basal acid secretion of the pylorus ligated rats three times, the compounds of the invention, 2 mg/kg, were administered subcutaneously and, 30 minutes thereafter, histamine 3 mg/kg, was administered also subcutaneously. Then, the amounts of acid secretion were measured for 3 hours. […] Then, an inhibition rate was calculated in accordance with the following formula, in relation to the increment values measured for the control group. [formula]
One group included five examples.

Data set [2] addresses T1, histamine H2 receptor in atria (Cavia porcellus, UniProt P47747).
T1 construct: right atrium was isolated; from tissue; host or cells: isolated right atrium of male Hartley guinea pig
The data set can be described thus: Histamine H2 receptor inhibition effect by isolated guinea pig right atrium preparation (negative chronotropic effect). In kind it is cell-based, Male Hartley Guinea Pig. To be noted: 5×10^-6 mol sample 3 minutes prior to histamine, mean of five, read-out: inhibitory effect of histamine H2 receptor in atria (pA2 value) (converted). The procedure: (B) Measurement of Histamine H2 Receptor Inhibition Effect by Isolated Guinea Pig Right Atrium Preparation
Male Hartley Guinea Pig weighing around 400 g was sacrified by decapitation, and right atrium was isolated. The right atrium was suspended in an organ bath (50 ml) containing modified Ringer solution. Under application of a tensile load of 1 g, the heart rate was recorded by means of a polygraph. Histamine was applied cumulatively from 1×10^-7 mol to 3×10^-4 mol and a cumulative dosage response curve was drawn. Then, 5×10^-6 mol of the sample was administered 3 minutes prios to histamine application. The negative logarithmic value (pA2) of the specimen molarity required for shifting the curve to the right to double concentration was calculated.

Another data set relates to gastric mucus secretion. The data set can be described thus: Effect on gastric mucus secretion in rats (alcian blue binding). To be noted: 10 mg/kg × 2/day orally for 7 days, * significant at 5%, ** at 1%; for Alcian blue binding: 7 rats; for % Change (Alcian blue binding): vs control (0.5% CMC). The class given is in vivo, Wistar male rats. Here is the method:
The test compounds were administered orally to Wistar male rats weighing from 160 to 180 g so as to investigate the effect on gastric mucus secretion. The amount of mucus was determined using alcian blue color specifically bonding with acid mucosaccharides, and was expressed by the amount of color bonding with a unit weight (OD units/g tissue). The test compounds were administered at a dosage of 10 mg/kg twice a day for 7 days, and the rats were sacrificed one hour after the final administration in the morning on the 8th day by cervical dislocation. After laparatomy, the stomach was removed. After removal of the forestomach, an incision was made along the greater curvatura. The stomach was lightly washed with a 0.25M sucrose solution cooled with ice. The weight was determined after absorption of water with a filter paper.
Then, the stomach was exposed for 1.5 hrs in 10 ml of 0.25M sucrose solution containing 0.1% alcian blue 8 GX for staining. Then, the stained stomach was washed with 10 ml of a 0.25M sucrose for 15 min, being dipped in 15 ml of a 0.5M MgCl2 for 2 hrs so as to elute alcian blue combined with the mucus. Finally, 10 ml of ethyl ether was added, and the mixture was shaken vigorously. The floating substances were removed, and the aqueous layer was quantified by measuring the absorption at 605 nm.
The above procedures were carried out at room temperature.

A short description of data set [3]: Acute oral toxicity test in mice (LD50, Litchfield-Wilcoxon). Conditions: mouse, in vivo. The procedure:
Male dd-mice were divided into groups of 5 and fasted for 8 hours. The test compounds were administered orally to the mice weighing from 19.7 g. to 22.0 g. The mice were observed survival or death as well as the general symptoms over 7 days after the administration of the compounds. The value of LD50 for each compound was estimated from the mortality observed on the basis of the Litchfield-Wilcoxon method.
In a similar test, the test compound of example 27, 35, 66, 84, 97, 104, 118, 125 or 129 was administered orally to the mice at a dose of 1500 mg/kg.

T1 sequence (P47747 whole entry): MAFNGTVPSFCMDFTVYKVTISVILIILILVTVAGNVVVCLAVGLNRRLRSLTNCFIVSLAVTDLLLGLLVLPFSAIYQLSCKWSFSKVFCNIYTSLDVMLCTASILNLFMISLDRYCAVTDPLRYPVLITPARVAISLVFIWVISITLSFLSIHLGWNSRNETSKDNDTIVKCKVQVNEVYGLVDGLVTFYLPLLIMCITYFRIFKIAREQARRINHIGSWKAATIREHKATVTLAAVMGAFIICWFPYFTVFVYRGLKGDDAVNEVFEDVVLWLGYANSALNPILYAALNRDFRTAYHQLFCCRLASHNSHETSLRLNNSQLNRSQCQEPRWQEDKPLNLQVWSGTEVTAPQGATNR

Consider `CN(C)Cc1nc2cc(CSCCNc3nc(N)nn3C)ccc2[nH]1` [Example 97, 1-methyl-5-[2-<5-(2-dimethylaminomethylbenzimidazolyl)-methylthio>ethyl]-1H-1,2,4-triazole-3,5-diamine], for which the inhibition in vivo at 2 mg/kg in data set [1] was determined as 76%. In addition, the Kb in data set [2] is 891 nM. In the data set with gastric mucus secretion, the Alcian blue binding turned out to be 0.49 ± 0.02 OD units/g tissue and the “% Change (Alcian blue binding)” value is “+37.4%”. Also, the LD50 – broadly, the dose at which mortality reaches 50% – at 168 h in data set [3] (similar test, oral dose of 1500 mg/kg) was > 1500 mg/kg.
On to `CN(C)Cc1cccc(Cc2cnc(NCCSCc3ccc4[nH]c(CN(C)C)nc4c3)[nH]c2=O)c1` [Example 78, 2-[2-<5-(2-dimethylaminomethylbenzimidazolyl)methylthio>ethylamino]-5-(3-dimethylaminomethylbenzyl)-4-pyrimidone], for which, in data set [1], the inhibition in vivo at 2 mg/kg was found to be 107%. For the same compound, the Kb in data set [2] was 1780 nM. Moreover, in the data set with gastric mucus secretion, the Alcian blue binding amounted to 0.45 ± 0.04 OD units/g tissue and the “% Change (Alcian blue binding)” value is “+24.6%”.
As for `CNC(=NC#N)NCCCOc1ccc2[nH]c(NC(=N)N)nc2c1` [Example 8, N-cyano-N'-methyl-N"-[3-<5-(2-guanidinobenzimidazolyl)oxypropyl] guanidine], in the data set with gastric mucus secretion, the Alcian blue binding came out at 0.55 ± 0.04 OD units/g tissue and the “% Change (Alcian blue binding)” value is “+52.5%”.
Take `CN(C)Cc1nc2cc(CSCCNc3n[s+]([O-])nc3N)ccc2[nH]1` (stereo not shown) [Example 103, 3-[2-<5-(2-dimethylaminomethylbenzimidazolyl)methylthio>ethyl]amino-4-amino-1,2,5-thiadiazol-1-oxide]: in data set [1], the inhibition in vivo at 2 mg/kg was determined as 98%. Moreover, the Kb in data set [2] is 575 nM. In the data set with gastric mucus secretion, the Alcian blue binding was determined as 0.31 ± 0.02 OD units/g tissue and the “% Change (Alcian blue binding)” value was “+14.8%”. Moreover, in data set [3] (oral, groups of 5, 7 days observation), the LD50 at 168 h is > 4000 mg/kg.
